Experimental findings from patent publication US7829087B2, “Methods of treating cognitive impairment” (Elan Pharmaceuticals, Inc., priority 2001, dated 2010) are described below.

In assay [1] the test system is LTP in the CA1 area. Kind of assay: Aβ-mediated inhibition of LTP in the CA1 in vivo. Further details: species or system rat.
Assay [2] has as its system LTP in the dentate gyrus. Kind of assay: Aβ-mediated inhibition of LTP in the dentate gyrus in vitro (hippocampal slices, field EPSPs). It is filed as cell-based, rat. Conditions: for Suppression of Aβ inhibition of LTP in vitro (figure legends): dentate gyrus in vitro. The method, then:
All experiments were carried out on transverse slices of the rat hippocampus (males, age 3-4 weeks, weight 40-80 g) or mice (males, age 3-4 months). The brains were rapidly removed after decapitation and placed in cold oxygenated (95% O2/5% CO2) media. Slices were cut at a thickness of 350 μm using an Intracell Plus 1000 and placed in a storage container containing oxygenated medium at room temperature (20-22° C.) for 1 hr. The slices were then transferred to a recording chamber for submerged slices and continuously superfused at a rate of 5-6 ml/min at 30-32° C. The control media contained (in mM): NaCl, 120; KCl 2.5, NaH2PO4, 1.25; NaHCO3 26; MgSO4, 2.0; CaCl2, 2.0; D-glucose 10. All solutions contained 100 μM picrotoxin (Sigma) to block GABAA-mediated activity.
Standard electrophysiological techniques were used to record field potentials. Presynaptic stimulation was applied to the medial perforant pathway of the dentate gyrus using a bipolar insulated tungsten wire electrode, and field excitatory postsynaptic potentials (EPSPs) were recorded at a control test frequency of 0.033 Hz from the middle one-third of the molecular layer of the dentate gyrus with a glass microelectrode. The inner blade of the dentate gyrus was used in all studies. In each experiment, an input-output curve (afferent stimulus intensity versus EPSP amplitude) was plotted at the test frequency. For all experiments, the amplitude of the test EPSP was adjusted to one-third of maximum (˜1.2 mV). LTP was evoked by 8 trains of high frequency stimulation (HFS), each of 8 stimuli at 200 Hz, inter-train interval 2s, with the stimulation voltage increased during the HFS so as to evoke an initial EPSP of the train of double the normal test EPSP amplitude. Control (vehicle alone) and experimental levels of LTP were measured on slices prepared from the same hippocampus. Recordings were analysed using p-CLAMP (Axon Instruments, CA, USA). The values reported herein were the means±S.E.M. for n slices. Two-tailed Student's t-test was used for statistical comparison.
Synthetic Aβ (1-42) was obtained from Bachem. For the in vitro experiments, synthetic Aβ1-42 was prepared as a stock solution of 50 μM in ammonium hydroxide (0.1%), stored at −20° C., and then added to physiological medium immediately prior to each experiment. For the in vivo experiments, synthetic Aβ(1-42) (Bachem) was re-suspended in ice-cold milliQ water or Teplow. An aliquot was removed and centrifuged at 100,000 g for 3 h, conditions known to pellet fibrils and protofibrils (Klyubin et al., 2004).
The following integrin-αv antibodies (all IgG1 isotype) were used in the studies: 18C7, 17E6 and 20A9 (all from Calbiochem). The control antibodies used were 7H10, an IgG2a mouse antibody against human ICAM-1 and 27/1, an IgG1 isotype. Other compounds used were echistatin (Source), SM256 (3-[1-[3-(N-imidazol-2-ylamino)propyl]indazol-5-ylcarbonylamino]-2(S)-(2,4,6-trimethylbenzenesulfonylamino)propionic acid trifluoroacetate) which was prepared by Elan Pharmaceuticals (recoded as ELN 151993) according to the methods of Van Maes et al, 1994, superfibernectin (Sigma) and phalloidin (Calbiochem). In the in vivo experiments, SM256 was prepared for i.p administration in a suspension of Tween 80 (Sigma) in saline (15% v/v).

The test system of assay [3] is human cortical cultures (HCC). Kind of assay: Aβ neurotoxicity in human cortical neurons (alamar blue). It is filed as cell-based. Conditions: for Maximal inhibition of toxicity (%): Aβ neurotoxicity in HCC, 3 days; for Inhibition of Aβ neurotoxicity (in words): HCC. The method, then: (§1) Tissue culture plates were coated with polyethyleneimine (PEI) in 150 mM sodium borate, pH 8.5, and incubated overnight at room temperature. Prior to adding cells, the wells were washed with PBS and Minimal Essential Media (MEM with 10% FBS) was added until cells were ready for plating. Human fetal cerebral cortex (E13-E16) was rinsed with Hank's Balanced Salt Solution (HBSS). Tissue was triturated in 1 mg of DNAse in HBSS. This suspension was filtered through a 100 micron nylon cell strainer and spun at 250×g for 5 minutes. The cells were resuspended in trypsin and incubated at 37° C. for 20 minutes. Modified Minimal Essential Media (MMEM with 10% FBS and 1 mg of DNase) was added and the cells were resuspended; then collected again by centrifugation. Cells were resuspended in MMEM containing B27, and plated in washed PEI-coated plates at 125,000 cells/well in 96 well plates or at 2.5 million cells/well in 6 well plates. The human cortical cultures (HCC) were incubated for 3 weeks with biweekly medium exchanges prior to treatment.
(§2) Aβ was generated by adding double distilled water (ddH2O) to Aβ to make up a 1 mM stock. This was aged for 3 days at 37° C., aliquoted, and stored frozen at −20° C. Soluble Aβ was made by adding DMSO to Aβ to make a 7.5 mM stock, sonicating for 30 minutes, aliquoting, and freezing at −20° C. Neurotoxic Aβ was generated by adding ddH2O to Aβ, aliquoting, and freezing at −20° C.
HCC were pretreated with antibodies or ligands for 30 minutes in neuronal medium (MEM) supplemented with glutamine and penicillin/streptomycin (basal media). One micromolar Aβ in basal medium was added for 1 hour. The medium was removed and the HCC were treated with antibodies or ligands and 20 μM soluble Aβ in basal medium for 3 days. At three days, the toxicity was determined by incubating in 10% alamar blue in basal medium for two hours. Fluorescence levels were measured relative to control and Aβ treated wells in triplicate.
For orientation: Resazurin is reduced to fluorescent resorufin, in cell work by metabolically active cells.

Assay [4] has as its system Aβ meshwork in human cortical cultures (HCC). Briefly: Aβ meshwork formation on human cortical cultures (Aβ immunofluorescence). It is filed as cell-based. The conditions noted are these: for Inhibition of Aβ meshwork formation (in words): HCC. The method, then:
as §1, §2
HCC treated with Aβ for 72 hours were fixed with 4% paraformaldehyde, stained with 5 μg/ml anti-Aβ-3D6-biotin, and visualized with 10 μg/ml streptavidin-FITC (Jackson).

Assay [5] concerns Human cortical neurons. Kind of assay: Amylin two component toxicity. It is filed as cell-based. The conditions noted are these: seed amylin 1 hour, then soluble amylin; toxicity after 1 day. The method, then: Seed or aggregated amylin (1 mM) from CPR, Inc. (641-80, lot NG-0213) was made by adding 200 μl water/mg powder and then aging the solution for three days at 37° C. Soluble amylin (5 mM) was prepared by adding 40 μl DMSO/mg powder and sonicating the mixture for 30 minutes in a water bath. Both stock solutions were aliquoted and frozen until ready for use. Soluble amylin stock was diluted to 20 μM in culture medium just prior to use and filtered through an Amicon 30 filter that had been pre-washed with water. Filtered material was then diluted to its appropriate concentration.
Human cortical neurons (at 125,000 cells/96 well) were treated for 1 hour with seed amylin at 5 μM, 100 μl/well. Cells were aspirated and soluble amylin was added back at 5 μM per 100 μl/well. For compound studies, 50 μl of 2× compound was added before adding the soluble amylin.

Several values for one entry are separate records, joined by “and”; a condition that tells them apart may be missing. Equal values may be shown once.

“Aβ: Synthetic Aβ (1-42) from Bachem, used to inhibit LTP”: in assay [1] (Aβ 50 pmol in 5 μl i.c.v., 10 min prior to HFS, 3 h post-HFS, anaesthetized rats), the “LTP (% baseline) in the presence of soluble fibril-free Aβ” value is given as 105±5%. Besides, the “LTP after peripheral vehicle followed by central injection of Aβ” value in assay [1] (vehicle i.p., Aβ 50 pmol i.c.v.) amounted to 103±10%. The “LTP (EPSP, % baseline) in the presence of Aβ alone” value in assay [2] (Aβ 500 nM, 1 h post-HFS, dentate gyrus slices) was 105±3 % baseline and 105±6 % baseline and 103±3 % baseline.
Take Laminin: in assay [3], the “Maximal inhibition of toxicity (%)” value is 20% and the “Inhibition of Aβ neurotoxicity (in words)” value is “not capable of inhibiting Aβ meshwork or neurotoxicity”. Moreover, the “Inhibition of Aβ meshwork formation (in words)” value in assay [4] was “not capable of inhibiting Aβ meshwork or neurotoxicity”.
Regarding `Cc1cc(C)c(S(=O)(=O)N[C@@H](CNC(=O)c2ccc3c(cnn3CCCNc3ncc[nH]3)c2)C(=O)O)c(C)c1.O=C(O)C(F)(F)F` [SM256, 3-[1-[3-(N-imidazol-2-ylamino)propyl]indazol-5-ylcarbonylamino]-2(S)-(2,4,6-trimethylbenzenesulfonylamino)propionic acid trifluoroacetate], the “Suppression of soluble Aβ inhibition of LTP in vivo (figure legends)” value in assay [1] (CA1 area in vivo) is recorded as “suppresses inhibition of LTP by soluble Aβ”. In addition, the “LTP after SM256 plus soluble Aβ” value in assay [1] (SM256 40 mg in 1.2 ml vehicle i.p., Aβ 50 pmol i.c.v. 40 min later, 10 min before HFS) came out at 133±5%. Further, the “Effect of SM256 alone on baseline synaptic transmission or control LTP” value in assay [1] (SM256 40 mg in 1.2 ml vehicle, i.p.) is on record as “no discernible effect on baseline synaptic transmission or control LTP”. The “LTP in the presence of Aβ plus SM256” value in assay [2] (SM256 10 μl M plus Aβ, n=5) worked out at 129±5%. Also, in assay [2] (SM256 10 μl M, no Aβ), the “LTP with SM256 alone” value was found to be 148±7%. The “Suppression of Aβ inhibition of LTP in vitro (figure legends)” value in assay [2] is reported as “suppresses inhibition of LTP by Aβ”.
Regarding `C=C1[C@@H](C)[C@H]2[C@H](Cc3ccccc3)NC(=O)[C@]23[C@H](OC(C)=O)/C=C/[C@@](C)(O)C(=O)[C@@H](C)C/C=C/[C@H]3[C@@H]1O` [cytochalasin D], in assay [5], the “Protection against amylin two component toxicity (in words)” value is reported as “amylin two component toxicity is further inhibited”.
With “Fibronectin: αvβ1 integrin ligand, large multidomain glycoprotein”, in assay [3], the “Maximal inhibition of toxicity (%)” value came to 32%; the “Inhibition of Aβ neurotoxicity (in words)” value was “capable of inhibiting Aβ meshwork formation and neurotoxicity”. For the same compound, the “Meshwork Inhibition” value in assay [4] (Aβ meshwork on HCC, Table 1) was “Yes”. Besides, in assay [4], the “Inhibition of Aβ meshwork formation (in words)” value is “capable of inhibiting Aβ meshwork formation and neurotoxicity”.
On to “echistatin (QCESGPCCRNCKFLKEGTICKRARGDDMDDYCNGKTCDCPRNPHKGPAT)”, for which the “Suppression of Aβ inhibition of LTP in vitro (figure legends)” value in assay [2] is reported as “suppresses inhibition of LTP by Aβ”. Besides, the “LTP in the presence of Aβ plus echistatin” value in assay [2] (echistatin 50 nM plus Aβ, n=5) was determined as 143±6%. Moreover, the “LTP with echistatin alone” value in assay [2] (echistatin 50 nM, no Aβ) is on record as 158±5%.
